Test systems include HCT-116; LOX IMVI; A549; SK-MEL-2; SF-295; ACHN; SNB-75; SW-620; U-251; KM12; NCI-H226; UACC-257; SK-OV-3; RXF 393; SR; K562; M14; RPMI-8226.
Test in all cases: NCI-60 cell line screen, 48 h

This note sets out measurements from ChEMBL document CHEMBL1201862, “PubChem BioAssay data set” (2004).

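Cultured in 96-well plates, cells were exposed to test compound for 48 hours across five concentrations. At the GI50, growth is halved.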 Active and inactive are the calls of the source. No stated cut-off is given here; in the data, active = GI50 up to about 1.1 µM and inactive = higher.

`C=CCOC(C)n1c(C)c(Br)c(=O)[nH]c1=O` (centres undefined): the GI50 in the test with HCT-116, in the test with LOX IMVI, with A549, with SK-MEL-2, in the test on SF-295 and in the test on ACHN was > 100 µM (inactive) each time. Further, the GI50 in the test on SNB-75, in the test on SW-620, in the test with U-251, in the test on KM12, in the test with NCI-H226 and in the test with UACC-257 was > 100 µM (inactive) throughout. For the same molecule, the values for the GI50 in the test with SK-OV-3, in the test on RXF 393 and in the test with SR were 65.2 µM (inactive), > 100 µM (inactive) and > 100 µM (inactive), respectively.

As for `N#CC1(N2CCCC2)CCC2(CC1)OCCO2`, the GI50 in the test on K562, in the test with HCT-116, in the test with LOX IMVI, in the test with A549, in the test with SK-MEL-2 and in the test with SF-295 was > 100 µM (inactive) in each case. Besides, the GI50 in the test on ACHN, in the test on SNB-75, with SW-620, with U-251, in the test on KM12 and in the test on NCI-H226 was > 100 µM (inactive) throughout. Further, the GI50 in the test on M14, in the test on UACC-257, in the test on SK-OV-3, in the test on RPMI-8226, with RXF 393 and in the test on SR was > 100 µM (inactive) in each case.

Consider `CC(=O)OC1CC2C(C)(C)C(=O)C=C[C@]2(C)C2CCC3(C)C(=CCC3[C@H](CO)C[C@H](O)C(=O)C(C)(C)O)[C@]12C` (some centres undefined), for which the GI50 is 27 µM (inactive) in the test with K562; 30.3 µM (inactive) in the test with HCT-116; 18.2 µM (inactive) in the test on LOX IMVI; 24.2 µM (inactive) with A549; 20.7 µM (inactive) in the test with SK-MEL-2; 12.9 µM (inactive) with SF-295. Moreover, the GI50 in the test with ACHN was 17.3 µM (inactive); in the test on SNB-75, 24.3 µM (inactive); with SW-620, 21.1 µM (inactive); in the test on U-251, 16.7 µM (inactive); with KM12 it was 19.1 µM (inactive); in the test with NCI-H226, 20.6 µM (inactive). The GI50 in the test with M14 is 21.7 µM (inactive); in the test on UACC-257, 14.5 µM (inactive); in the test on SK-OV-3, 13.7 µM (inactive); in the test with RPMI-8226 it was 22.3 µM (inactive); with RXF 393 it was 16.5 µM (inactive); in the test with SR, 25.4 µM (inactive).

As to `O=C1CCCCC12CCC/C2=N\O` (centres undefined), the GI50 in the test on K562, in the test with HCT-116, in the test with A549, with SK-MEL-2, with ACHN and in the test with SNB-75 was > 100 µM (inactive) throughout. Also, the GI50 in the test on SW-620, in the test on U-251, in the test on KM12, in the test on NCI-H226, with M14 and in the test on UACC-257 was > 100 µM (inactive) each time. Further, the GI50 in the test with SK-OV-3, with RPMI-8226, with RXF 393 and in the test on SR was > 100 µM (inactive) each time.

Consider `CCCCCCCCCCCc1cc(=O)c2c(O)cccc2o1`, for which the GI50 with K562 was 43.7 µM (inactive); in the test with HCT-116 it was 41.9 µM (inactive); in the test on LOX IMVI, 37.5 µM (inactive); in the test on A549 it was 61.8 µM (inactive); in the test with SK-MEL-2, 24.1 µM (inactive); in the test with SF-295, 87.5 µM (inactive). In addition, the GI50 was > 100 µM (inactive) in the test on ACHN; > 100 µM (inactive) in the test with SNB-75; > 100 µM (inactive) in the test with SW-620; 95.7 µM (inactive) with U-251; 54.2 µM (inactive) with KM12; 37.8 µM (inactive) with NCI-H226. Also, the GI50 is 64 µM (inactive) in the test on M14; 36 µM (inactive) in the test with UACC-257; > 100 µM (inactive) with SK-OV-3; 30.6 µM (inactive) in the test on RPMI-8226; 70.6 µM (inactive) in the test on RXF 393; 26.1 µM (inactive) with SR.

Take `COc1ccc(C(=O)C=C2NCCN2)cc1`: the GI50 in the test with K562, in the test on HCT-116, in the test on LOX IMVI, in the test on A549, with SK-MEL-2 and with SF-295 was > 100 µM (inactive) throughout. Besides, the GI50 in the test on ACHN, in the test on SNB-75, with SW-620, with U-251, in the test on KM12 and with NCI-H226 was > 100 µM (inactive) each time. Further, the GI50 in the test with M14, with UACC-257, in the test with SK-OV-3, with RPMI-8226, with RXF 393 and in the test with SR was > 100 µM (inactive) in each case.

With `CCOC1=C2N=C(Cc3ccccc3F)N=C2C(=O)c2ccccc21`, the GI50 with K562, in the test on HCT-116, in the test on A549, with SK-MEL-2, with SF-295 and with ACHN was > 100 µM (inactive) in each case. In addition, the GI50 is 90.8 µM (inactive) in the test on SNB-75; > 100 µM (inactive) with SW-620; > 100 µM (inactive) in the test on U-251; > 100 µM (inactive) in the test on KM12; > 100 µM (inactive) with NCI-H226; > 100 µM (inactive) with M14. Also, the GI50 with UACC-257, in the test with RPMI-8226, with RXF 393 and with SR was > 100 µM (inactive) each time.

Regarding `COc1ccc(Nc2nc3cc(C(F)(F)F)ccc3nc2-c2ccccc2)cc1OC`, the GI50 with K562 was 61 µM (inactive); in the test on HCT-116, 12.6 µM (inactive); with LOX IMVI, 19.8 µM (inactive); with A549, 25.9 µM (inactive); in the test with SK-MEL-2, 48.9 µM (inactive); in the test with SF-295, 11.3 µM (inactive). Also, the GI50 in the test with ACHN was 30.6 µM (inactive); with SNB-75, 28.4 µM (inactive); with SW-620, 35.5 µM (inactive); with U-251, 30.9 µM (inactive); in the test with KM12 it was > 100 µM (inactive); with NCI-H226, 15.8 µM (inactive). The GI50 with M14 was 38.6 µM (inactive); with UACC-257, 27.2 µM (inactive); with SK-OV-3, 15.9 µM (inactive); with RXF 393 it was 11.9 µM (inactive); in the test on SR, 75.9 µM (inactive).

As for `CC(=O)OCC1OC(OC2CC3C(C)(C)C(O)CC[C@]3(C)C3CCC45CC4(CC[C@H]5C(C)CC(O)C4OC4(C)C)[C@]23C)C(O)C(O)C1O` (some centres undefined), the GI50 was 1.85 µM (inactive) with K562; 9.14 µM (inactive) in the test on HCT-116; 5.2 µM (inactive) with LOX IMVI; 10.6 µM (inactive) in the test on A549; 5.86 µM (inactive) in the test on SK-MEL-2; 8.24 µM (inactive) with SF-295. For the same molecule, the GI50 with ACHN is 8.63 µM (inactive); in the test with SNB-75, 7.46 µM (inactive); in the test with SW-620, 7.98 µM (inactive); in the test on U-251 it was 3.89 µM (inactive); in the test on KM12, 8.04 µM (inactive); in the test on NCI-H226, 8.95 µM (inactive). Further, the GI50 was 8.04 µM (inactive) with M14; 9.04 µM (inactive) in the test with UACC-257; 8.2 µM (inactive) in the test on SK-OV-3; 0.711 µM (active) in the test on RPMI-8226; 4.2 µM (inactive) in the test with RXF 393; 1.47 µM (inactive) with SR.

`O=C1c2ccccc2C(=O)C1C(c1ccc(F)cc1)C1C(=O)c2ccccc2C1=O`: the GI50 is > 100 µM (inactive) in the test with K562; > 100 µM (inactive) in the test on HCT-116; 25.9 µM (inactive) with LOX IMVI; > 100 µM (inactive) in the test on A549; > 100 µM (inactive) in the test with SK-MEL-2; > 100 µM (inactive) in the test on SF-295. The GI50 was > 100 µM (inactive) with ACHN; 55 µM (inactive) in the test with SNB-75; > 100 µM (inactive) with SW-620; > 100 µM (inactive) with U-251; > 100 µM (inactive) in the test on KM12; > 100 µM (inactive) with NCI-H226. Besides, the GI50 in the test on M14 is > 100 µM (inactive); in the test on UACC-257, > 100 µM (inactive); in the test on SK-OV-3, > 100 µM (inactive); in the test on RPMI-8226, 48.3 µM (inactive); in the test with RXF 393 it was 24.8 µM (inactive); in the test on SR, 41.5 µM (inactive).

`O=C(Nc1cc(Cl)c(Cl)cc1Cl)C(=O)C(C(=O)c1ccccc1)C1OC(=O)c2ccccc21` (centres undefined): the GI50 in the test with K562, in the test on HCT-116, with LOX IMVI, in the test on A549, in the test on SF-295 and in the test with ACHN was > 100 µM (inactive) in each case. The GI50 in the test with SNB-75 is 17.9 µM (inactive); with SW-620, > 100 µM (inactive); in the test on U-251 it was > 100 µM (inactive); with KM12, > 100 µM (inactive); in the test on NCI-H226 it was > 100 µM (inactive); in the test with M14 it was > 100 µM (inactive). Besides, the GI50 was > 100 µM (inactive) in the test with UACC-257; > 100 µM (inactive) with SK-OV-3; > 100 µM (inactive) in the test on RPMI-8226; > 100 µM (inactive) with RXF 393; 97.7 µM (inactive) in the test on SR.
